Source: patent US5808109A, “Compounds that inhibit complement and/or suppress immune activity” (T Cell Sciences, Inc., priority 1995, dated 1998)
Where two headings read alike, the source gives them in different places.

Experiments:
[1] = test system: CD8 protein release; test: CD8 protein release into supernatant of stimulated PBL cultures (enzyme immunoassay); assay type: cell-based, human; conditions: stimulated PBL cultures (FIG. 7)
Procedure: (§1) Release of cell surface interleukin-2 receptor (IL-2R) or CD8 antigen from lymphocytes is a correlate of T cell activation (Rubin et al. J. Immunol. 1985, 135, 3172-77; Rubin et al. Fed. proc. 1985 44, 946; Fujimoto, J. et al. J. Exp. Med. 1983, 159, 752-66; Tomkinson, B. et al. 2d Annual Conference on Clinical Immunol. Washington, D.C., Oct. 30, 1987). In some experiments, the level of IL-2R or CD8 protein released into the supernatant of the PBL cultures was assessed by removing aliquots therefrom just prior to pulsing with ^3 H-thymidine. Commercially available enzyme immunoassay kits (CELLFREE™ IL-2R, Cat. No. CK1020, T Cell Sciences, Inc., Cambridge, Mass., or CELL-FREE™ T8/CD8, Cat. No. CK1040, T Cell Sciences) were used to determine the levels of the two analytes.

[2] = test system: interleukin-2 receptor (IL-2R) release; test: IL-2R release into supernatant of stimulated PBL cultures (enzyme immunoassay); assay type: cell-based, human; conditions: stimulated PBL cultures (FIG. 6)
Procedure: as §1

[3] = test system: C5a production; test: Inhibition of C5a production in human serum (aggregated IgG, RIA); assay type: biochemical; conditions: concentration inhibiting C5a production 50% relative to control
Procedure: (§2) The ability to inhibit complement was tested by assaying for specific inhibition of C3a and C5a production. For all experiments, a single human serum pool, to be used as a source of complement, was aliquoted and stored frozen at -70° C. Human IgG was heat-aggregated, aliquoted, and stored frozen at -70° C. For each experiment, serum aliquots were equilibrated at 37° C. with varying concentrations of the compounds tested. The classical complement pathway was initiated by the addition of aggregated human IgG. Control samples containing no IgG were always included. After a fixed reaction time of 10 minutes (determined in an earlier time-course study to provide a convenient time interval during which the production of C5a or C3a is nearly complete, i.e., greater than 90%), the levels of the released complement peptides (C5a or C3a) were determined by radioimmunoassay using commercially available radioimmunoassay (RIA) kits (C5a RIA, UpJohn Cat. No. 3250-02; C3a RIA, UpJohn Cat. No. 3245-01; C5a RIA, Amersham Cat. No. RPA.520; C3a RIA, Amersham RPA.518).
(§3) Since a competitive immunoassay was used, complement peptide (C5a and C3a) concentrations varied inversely with the counts. The Counts Bound (CB) for a sample was defined as the total counts (in counts per minute, cpm) measured in the pellet minus the counts measured in a nonspecific binding (NSB) control. The NSB control was a sample containing only tracer peptide (^125 I-labelled) and second precipitating antiserum; it contained no C5a- or C3a-specific antiserum.
(§4) The y-axis in FIG. 2 represents the fraction inhibition. The fraction inhibition is equal to the Counts Bound (CB) for a "sample," less the CB in the "sample with no added compound," divided by the CB for the "no IgG control" less the CB in the "sample with no added compound." [formula]
(§5) FIG. 2 is representative of the data plots obtained from the assays described above.

[4] = test system: cell surface IL-2R expression; test: Inhibition of cell surface IL-2R expression, PHA-stimulated PBL, flow cytometry; assay type: cell-based; conditions: PHA 72 h, total cell count 5000
Procedure: Compounds were tested for their ability to inhibit T cell activation, as indicated by inhibition of cell-surface IL-2R expression. PBL cultures (1.5 ml; 24-well plates) were stimulated with PHA (1 μg/ml) for 72 hours in the absence or presence of varying amounts of compound 11a. Subsequently, the cells were stained using fluorescein isothiocyanate (FITC)-labeled anti-IL-2R antibody (Act-T-Set IL-2R, Cat. No. AA2009, T Cell Sciences, Inc., Cambridge, Mass.) and analyzed by flow cytometry (Ortho System 30) (Table X).

[5] = test system: human complement; test: Inhibition of complement-mediated hemolysis, human serum, sensitized sheep erythrocytes; assay type: biochemical
Procedure: The ability to inhibit complement was also tested by assaying for inhibition of complement-mediated red cell lysis (hemolysis). The inhibition of hemolysis was determined as a function of compound concentration. The compounds to be tested were diluted in 0.1M Hepes buffer (0.15N NaCl, pH 7.4), and 50 μl were added to each well of a V-bottom microtiter plate. Human serum, used as the complement source, was diluted 1 to 500 in Hepes buffer, and 50 μl were added to each well. Next, commercially available sheep erythrocytes with anti-sheep antibody (Diamedix Cat. No. 789-001) were used as received and added at 100 μl/well to initiate the complement pathway leading to hemolysis. The plate was incubated for 60 minutes at 37° C. and then centrifuged at 500×g for 10 minutes. The supernatants were removed and placed in a flat-bottom microtiter plate. The extent of hemolysis was measured as a function of the sample absorbance at 410 nm. The maximal absorbance (corresponding to maximal hemolysis), Amax, was obtained from the absorbance value of an erythrocyte sample containing only human serum, AS, less the absorbance of a sample containing only the red cells, A0. Thus, Amax =AS -A0. The difference between the absorbance of an erythrocyte sample containing both human serum and inhibitive compound, and the absorbance of a cell sample containing inhibitive compound only, was defined as Asample. The inhibition, IH, was expressed as the fraction (Amax -Asample)/Amax, and IH50 was defined as the concentration of inhibitive compound required to produce a value of IH=1/2.
The 4 substituted spirobenzofuran compounds of example 7 and the disubstituted spirobenzofuran compounds of example 8 were tested for their capacity to inhibit complement-mediated lysis of sheep red blood cells (SRBC) as described in Section 6.6.2 supra with the modification that the human serum used as the complement source was diluted to 1 to 100 in Hepes buffer, instead of […]. The results of the hemolysis assays are shown in FIG. 8 and Tables XI and XII.

[6] = Viability of effector cells by trypan blue exclusion; assay type: cell-based; conditions: human, peripheral blood mononuclear cells
Procedure: where EXP (experimental value) was obtained using effector and target cells; SR (the spontaneous release) was obtained from target cells incubated with media alone; TOTAL release was obtained by hypotonic lysis in water; and B represents instrumental background. Means were calculated from quadruplicate wells and the standard deviations never exceeded 10%. Viability of the effector cells incubated with the test compound was determined by trypan blue exclusion.

[7] = test system: C3a production; test: Inhibition of C3a production in human serum (aggregated IgG, RIA); assay type: biochemical; conditions: human serum, concentration inhibiting C3a production 50% relative to control
Procedure: as §2, §3, §4, §5

- CD8 protein release [1]: inhibitor
- IL-2R protein release [2]: inhibitor
- IC50 [3]: 5 mM
- IC50 [7]: 22 mM
Structure (SMILES): COc1ccc(C(=O)O)c2c1CC1(CCCCC1)O2 [Compound 11a, 7-carboxy-4-methoxyspiro[benzofuran-2(3H)-cyclohexane]]
- Number of Cells Positive for IL-2R ([4]; 0.44 nM (so in the source)): 913
- Percentage Positive ([4]; 0.44 nM (so in the source)): 18.3
- Number of Cells Positive for IL-2R ([4]; 1.76 nM (so in the source)): 225
- Percentage Positive ([4]; 1.76 nM (so in the source)): 4.5
- IC50 ([5]; Table VII, human serum, read-out: IHO50): 1.33 mM
- IC50 ([5]; Table XI, human serum diluted 1 to 100, read-out: IH50 Mean): 1.33 mM
- IC50 ([5]; from FIG. 3 plot, read-out: IH50 (the source's name)): ~0.9 mM
- viability at 400 µM ([6]; 0.4 mM): 95%
- viability at 800 µM ([6]; 0.8 mM): 95%
- viability at 1600 µM ([6]; 1.6 mM): 95%
- viability at 3200 µM ([6]; 3.2 mM): 76%
- viability at 6400 µM ([6]; 6.4 mM): 5%
